From patent US20190328828A1, “PHARMACEUTICAL COMPOSITION, PROCESS FOR PRODUCING THE SAME, USE OF A PEPTIDE, USE OF A PHARMACEUTICAL COMPOSITION AND METHOD FOR TREATING DISEASES ASSOCIATED WITH INTRAOCULAR HYPERTENSION OR GLAUCOMA” (UNIAO QUIMICA FARMACEUTICA NACIONAL S/A, priority 2017, published 2019)

What was measured:
patients = patients treated chronically; cited from earlier work
ganglion cells = details: rat retina explant model, White et al (2015); cited from earlier work
rats = details: free (non-encapsulated) peptide, RVLB microinjection, 25-50 ng, previous studies; cited from earlier work
[1] = Long-term and accelerated stability study of raw material; type: physicochemical
Description: Stability is defined as the time during which pharmaceutical expertise or even raw material considered alone is maintained within specified limits and throughout the period of storage and use, the same conditions and characteristics that had upon the time of their manufacture.
Stability study was carried out in two conditions, the condition A being at 5° C.±3° C. with no humidity and condition B 25° C.±2° C. with the relative humidity of 60%±5%.

[2] = Description: The absorption and biological stability tests were performed with solutions of the peptide-cyclodextrin inclusion compound. To carry out the experiments, 12 normal Wistar rats were used, which had previously cannulated the left femoral artery. […] Four blood draws (1 mL) were carried out, being the first prior to gavage, and the three others within 2, 6 and 24 hours after gavage
ACE = ACE (Homo sapiens, UniProt P12821); details: read-out: IC50 for inhibiting ACE; cited from earlier work
Sequence of ACE (P12821 30-1306, species assumed): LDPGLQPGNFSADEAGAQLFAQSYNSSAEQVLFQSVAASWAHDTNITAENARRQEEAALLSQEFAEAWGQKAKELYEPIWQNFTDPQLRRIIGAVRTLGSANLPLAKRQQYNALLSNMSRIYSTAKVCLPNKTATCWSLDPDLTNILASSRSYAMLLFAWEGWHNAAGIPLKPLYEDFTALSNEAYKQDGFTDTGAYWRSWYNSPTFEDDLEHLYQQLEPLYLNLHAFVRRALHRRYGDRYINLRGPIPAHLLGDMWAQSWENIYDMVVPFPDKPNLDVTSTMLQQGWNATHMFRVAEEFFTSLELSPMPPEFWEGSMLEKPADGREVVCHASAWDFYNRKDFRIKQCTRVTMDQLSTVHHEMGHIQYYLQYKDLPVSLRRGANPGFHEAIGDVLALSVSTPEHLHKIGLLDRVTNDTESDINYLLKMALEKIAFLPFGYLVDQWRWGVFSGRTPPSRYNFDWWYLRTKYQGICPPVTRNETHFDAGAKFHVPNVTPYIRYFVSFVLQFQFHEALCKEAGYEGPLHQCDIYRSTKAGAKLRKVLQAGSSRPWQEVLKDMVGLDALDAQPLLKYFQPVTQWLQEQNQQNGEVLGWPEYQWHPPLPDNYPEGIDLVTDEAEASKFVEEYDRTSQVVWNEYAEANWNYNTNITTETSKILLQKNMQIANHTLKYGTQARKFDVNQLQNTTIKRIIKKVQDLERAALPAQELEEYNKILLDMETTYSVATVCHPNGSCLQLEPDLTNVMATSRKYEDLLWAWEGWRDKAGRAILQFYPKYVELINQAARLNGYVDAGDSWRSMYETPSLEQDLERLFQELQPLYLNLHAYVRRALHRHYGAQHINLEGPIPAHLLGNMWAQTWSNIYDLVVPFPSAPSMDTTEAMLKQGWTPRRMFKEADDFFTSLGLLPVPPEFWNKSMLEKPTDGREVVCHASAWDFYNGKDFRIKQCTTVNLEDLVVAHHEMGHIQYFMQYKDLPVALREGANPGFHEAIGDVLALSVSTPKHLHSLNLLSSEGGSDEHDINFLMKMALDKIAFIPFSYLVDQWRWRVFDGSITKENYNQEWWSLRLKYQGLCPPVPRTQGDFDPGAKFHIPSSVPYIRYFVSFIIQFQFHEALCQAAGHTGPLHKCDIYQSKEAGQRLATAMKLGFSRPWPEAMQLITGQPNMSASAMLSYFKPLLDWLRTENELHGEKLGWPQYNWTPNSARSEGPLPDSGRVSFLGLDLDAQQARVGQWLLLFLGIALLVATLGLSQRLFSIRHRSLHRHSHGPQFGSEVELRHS

## CCC[C@H](N[C@@H](C)C(=O)N1[C@H](C(=O)O)C[C@@H]2CCCC[C@@H]21)C(=O)OCC [perindopril]
patients
  reduction of the risk of dementia: 34%

## Angiotensin II
Ganglion cells
  reduction of survival of ganglion cells: 40%

## CCCCC1=NC2(CCCC2)C(=O)N1Cc1ccc(-c2ccccc2-c2nnn[nH]2)cc1 [irbesartan]
Ganglion cells
  survival of ganglion cells: doubled

## CC[C@H](C)[C@H](NC(=O)[C@H](Cc1ccc(O)cc1)NC(=O)[C@@H](NC(=O)[C@H](CCCNC(=N)N)NC(=O)[C@@H](N)CC(=O)O)C(C)C)C(=O)N[C@@H](Cc1c[nH]cn1)C(=O)N1CCC[C@H]1C(=O)O [SEQ ID NO: 1, Asp-Arg-Val-Tyr-Ile-His-Pro]
rats
  duration of pressor effect: approximately 10 min
  increase in arterial pressure: 15 mmHg
[1]; 5° C.±3° C., no humidity
  time for which the raw material is stable, long-term condition: 36 months
[1]; 25° C.±2° C., 60% relative humidity
  time for which the raw material is stable, accelerated condition: 6 months
[2]; 6 hours after gavage
  increase in plasma concentration, times less than with SEQ ID NO: 1 βcyclodextrin: about 8 times
[2]; rat, in vivo, po, 10 ug/50 ul
  level at 6 h: 0.086 ± 0.013 ng/mL
ACE
  IC50: ~1000 nM

## CCOC(=O)[C@H](CCc1ccccc1)N[C@@H](C)C(=O)N1CCC[C@H]1C(=O)O [enalapril]
patients
  reduction of the risk of dementia: 55%
